Each structure is given as a SMILES string.

A short description of the data set: gradient 5% acetonitrile 3 min, to 50% in 2 min, to 85% in 15 min, held 3 min, 100 µL/min. To be noted: column: Zorbax Extend-C18 2.1 x 50 mm; eluents: water / acetonitrile, 0.1% formic acid. In short, it runs like this:
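Each retention time is based on an adduct peak selected computationally and verified by manual inspection. Measurements used HPLC–quadrupole time-of-flight mass spectrometry in positive and negative ionization mode on mixtures of ~100 pure standards. Chromatography ran on a Zorbax Extend-C18 column (2.1 × 50 mm, 1.8 μm) at 100 μL/min with water and acetonitrile, each containing 0.1% formic acid, and dead and dwell volumes of 40 μL and 900 μL.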
`CCOc1ccc(NS(=O)(=O)c2c(C)sc(C)c2-c2cc(C(F)(F)F)on2)cc1`: the RP-LC retention time was found to be 1220 s. `CCN1C(=O)c2ccccc2Oc2ccc(C(=O)N3CCC4(CC3)OCCO4)cc21` registered an RP-LC retention time of 770 s. Next, `CCC1=C(c2ccc(C)cc2)S(=O)(=O)N=C1N1CCC(C(=O)NCCCOC(C)C)CC1`: 844 s; `COc1ccc(NC(=O)N2CCC(c3cc(N)on3)CC2)cc1F`: 663 s. The compound `CCOc1ccc(Br)cc1S(=O)(=O)Nc1ccc(-c2cn3ccc(C)nc3n2)cc1` came in with an RP-LC retention time of 724 s. For the compound `Cn1c(=O)c2c(ncn2CC(=O)N2CCC(CCOc3ccc(F)cc3)C2)n(C)c1=O` (stereo not given), the RP-LC retention time is 748 s.

`Cc1ccc2nc(-c3cc(Br)ccc3F)c(Nc3ccc4c(c3)OCCO4)n2c1` displayed an RP-LC retention time of 737 s.

Take `CCc1nc2c(NC(=O)c3ccc(Br)cc3)cccn2n1`: the RP-LC retention time came out at 914 s. Take `COCCOC1CCC12CCN(C(=O)c1cn[nH]c1)CC2` (stereo not given): the RP-LC retention time amounted to 617 s.

The compound `NS(=O)(=O)c1ccc(CCNC(=O)c2coc(NC(=O)c3cccs3)n2)cc1` registered an RP-LC retention time of 603 s. Next, `CCn1ccc2c(cc(C(=O)Nc3cc(F)ccc3F)n2C)c1=O`: 754 s. For the compound `Cc1cc(N2CCN(C(=O)Nc3ccccc3C)CC2)nc(N2CCOCC2)n1`, the RP-LC retention time turned out to be 613 s.

`Nc1nc2c(C(F)(F)F)cccc2s1` gave an RP-LC retention time of 720 s. Next, `COc1ccc(CCNC(=O)C2CN(S(C)(=O)=O)CC23CCCCC3)cc1OC` (stereo not given): 763 s; `COc1ccc2c(c1)C1(CCN(C(=O)c3ccccc3)C1)C(=O)N2` (stereo not given): 692 s; `CCc1noc(-c2cccnc2N2CCCN(Cc3ccc(Br)cc3)CC2)n1`: 730 s. Regarding `Cc1nc2cc(N3CCCC(C(=O)O)C3)cnc2nc1C` (stereo not given), the RP-LC retention time was 604 s. With `Cc1ccc(N(Cc2nc3nc(C)cc(C)n3n2)C(=O)c2cccs2)cc1` the figure was 802 s.

`COc1ccccc1CCC(=O)NC(C(=O)Nc1nc2ccccc2[nH]1)C(C)C` (stereo not given) had an RP-LC retention time of 721 s.

In turn, `CC(C)(C)c1ccc(C(=O)CCCN2CCC(OC(c3ccccc3)c3ccccc3)CC2)cc1` registered an RP-LC retention time of 1190 s.

Compound `CN(CC1CCOC1)C(=O)c1cc(Cl)ccc1F` (stereo not given) showed an RP-LC retention time of 719 s. With `CC(C)CC(NC(=O)c1ccccc1)C(=O)Nc1nc2ccccc2[nH]1` (stereo not given) the figure was 725 s.

The compound `COC(=O)c1cc2c(=O)n(-c3ccc(Cl)c(Cl)c3)ccc2nc1C` returned an RP-LC retention time of 915 s.

In turn, `COCCNc1ccc2nnc(C)n2n1` showed an RP-LC retention time of 590 s. Compound `CCN1C(=O)CCc2cc(NC(=O)Cc3ccc(F)cc3)ccc21` gave an RP-LC retention time of 780 s. On to `Cc1nnsc1C(=O)Nc1onc2c1CSC2`, for which the RP-LC retention time worked out at 666 s.

The compound `Nc1cc(=O)nc(SCC(=O)NC2CCCCC2)n1-c1cccc(C(F)(F)F)c1` yielded an RP-LC retention time of 649 s. With `CCNc1cc(N2CCCC(CCC(=O)N3CCN(c4ncccn4)CC3)C2)ncn1` (stereo not given) the figure was 624 s; with `N#Cc1cc(NC(=O)c2ccc3c(c2)OCO3)ccc1N1CC2CC(C1)c1cccc(=O)n1C2` (stereo not given), 749 s; with `COc1ccc(OCc2nc(CCN(C)C(=O)CC3CCCC3)no2)cc1`, 919 s. Consider `O=C(NCc1ccc(F)cc1)C1CCN(S(=O)(=O)c2cc(-c3noc(C4CC4)n3)cs2)CC1`, for which the RP-LC retention time was 958 s. In turn, `O=C(/C=C/c1ccccc1Cl)c1ccc(O)cc1` returned an RP-LC retention time of 944 s. In the case of `O=C(c1ccc(Cl)cc1)N1CCN(c2cnn3c(C4CC4)nnc3c2)CC1`, the RP-LC retention time came out at 683 s.

`Cc1ccccc1Nc1c(-c2ccc(O)cc2)nc2c(C)cccn12` gave an RP-LC retention time of 651 s. Next, `COc1ccccc1C(CNC(=O)c1cc(=O)c2ccccc2o1)N(C)C` (stereo not given): 606 s.

Regarding `CCOC(=O)N1CCN(C(=O)c2cn(CC(O)c3ccccc3)nn2)CC1` (stereo not given), the RP-LC retention time was found to be 634 s. `Cc1cccc(CNS(=O)(=O)c2ccc3c(c2)CCCC(=O)N3)c1` displayed an RP-LC retention time of 754 s. Next, `CCn1cnc(S(=O)(=O)N2CCCC(C(=O)Nc3ccc(F)cc3C)C2)c1` (stereo not given): 726 s. `O=C(Cn1cnc2ccccc21)N1CCN(C(=O)C2CC2c2cccs2)CC1` (stereo not given) came in with an RP-LC retention time of 592 s. As for `CC(=O)NCc1nc2ccccc2n1CC(=O)Nc1ccccc1`, the RP-LC retention time worked out at 600 s. Next, `O=C(NCCN1CCOCC1)C1=C2CCCN2c2ccc(F)cc2S1(=O)=O`: 586 s. Next, `CCOC(=O)C1CCN(C(=O)C2CCCN(c3ccc(-c4ccc(C)c(C)c4)nn3)C2)CC1` (stereo not given): 761 s; `CCOc1cccc(-c2noc(Cn3c(=O)n(-c4ccccc4C)c(=O)c4sccc43)n2)c1`: 1070 s. Next, `COc1ccc(-c2cc3c4nnc(CCC(=O)NCc5ccccc5C(F)(F)F)n4ccn3n2)cc1`: 822 s. `CC(C)N1CCN(Cc2ccc(C(=O)NC3CCCCCC3)cc2)C(=O)C1=O` returned an RP-LC retention time of 749 s. In the case of `Cc1ccc2nc(C)c(NC(=O)CSCc3ccccc3)c(=O)n2c1`, the RP-LC retention time stood at 662 s. Next, `CCN1C(=O)c2cccnc2Sc2cc(CNC(=O)c3sc(C)nc3C)ccc21`: 681 s. The compound `c1cn(-c2cc(N3CCSCC3)ncn2)cn1` registered an RP-LC retention time of 591 s.

`Cc1cccc(-n2cc(C(=O)OCC(=O)OC(C)C)c3ccccc3c2=O)c1` came in with an RP-LC retention time of 1130 s. In turn, `Cn1cc(C(=O)Nc2ccc3c(c2)CCC3)c(S(=O)(=O)N2CCCCC2)n1` registered an RP-LC retention time of 1090 s. In turn, `Cc1cc(=O)n(CC(=O)N(C)c2ccccc2)c(N2CCCCC2)n1` came in with an RP-LC retention time of 669 s. With `Cc1nc(-c2ccc(-c3noc(COc4ccc(Cl)cc4)n3)cc2)cs1` the figure was 1280 s. With `Cc1nn(-c2ccccc2)c2nc(N3CCCC(C(=O)Nc4cccc(Br)c4)C3)sc12` (stereo not given) the figure was 1300 s. As to `COC(=O)c1ccc(Cl)cc1NC(=O)N(C)CCc1c(C)nn(C)c1C`, the RP-LC retention time was 873 s. Next, `Nc1nc(CC(=O)Nc2ccc(CCNC[C@H](O)c3ccccc3)cc2)cs1`: 591 s; `COCCN(Cc1ccncc1)S(=O)(=O)c1ccc(-c2ccccc2)cc1`: 630 s. Next, `O=C(NCc1ccccc1)c1ccc2ncnc(N3CCCC3)c2c1`: 613 s; `Cc1cccc(S(=O)Cc2ccc(C(=O)NCCN3CCOCC3)o2)c1` (stereo not given): 583 s; `Cc1ccc(N(C)S(=O)(=O)c2cc3n(c2)CCCNC3=O)cc1`: 663 s. Consider `Cc1nc(-c2ccccc2)cc2nn(CC(=O)N3CCCc4ccccc43)c(=O)n12`, for which the RP-LC retention time turned out to be 1010 s. `CN(C)CCCNC(=O)C1CCN(c2nc3ccc(-c4ccsc4)nc3s2)CC1` showed an RP-LC retention time of 644 s. Next, `O=C(c1ccccc1Cl)N1CCN(C(=O)c2nnn3c2COC(c2ccccc2)C3)CC1` (stereo not given): 858 s; `O=C(NCc1csc(C2CCN(C(=O)c3ccc(Cl)cc3)CC2)n1)C1CCC1`: 761 s; `C=C1/C(=C/C=C2/CCC[C@]3(C)[C@@H]([C@H](C)CCCC(C)C)CC[C@@H]23)C[C@@H](O)C[C@@H]1O`: 1220 s.

The compound `O=S(=O)(c1ccc2c(c1)CCC2)N1CCCn2nc(-c3ccncc3)cc2C1` had an RP-LC retention time of 687 s. Next, `COc1ccc(C2c3[nH]c4ccccc4c3CCN2C(=O)Cc2cccs2)cc1` (stereo not given): 1110 s. With `COC(=O)c1cnc(N2CCN(c3cc(Cl)ccc3C)CC2)c2ccccc12` the figure was 651 s; with `COc1ccc(NS(=O)(=O)c2ccc(N3C(=O)CCC3=O)cc2)c(OC)c1`, 703 s; with `Cc1ccc(Cn2nnc(C(=O)N3CCSCC3)c2-n2cccc2)cc1`, 956 s. With `CCCc1noc(-c2ccc3nnc(CC(=O)Nc4ccc(C)c(C)c4)n3c2)n1` the figure was 940 s; with `CCn1cc(S(=O)(=O)Nc2cc(F)ccc2C)c2cccnc21`, 869 s.

`CCOc1ccccc1NC(=O)CNC(=O)c1c[nH]c2ccccc12` returned an RP-LC retention time of 729 s. With `Cc1ccc(NC(=O)N2[C@H]3CC[C@@H]2c2cncnc2C3)cc1F` the figure was 738 s; with `CCOc1ccc(CC(=O)N2CCCC2c2nc(-c3ccccc3)no2)cc1OCC` (stereo not given), 1010 s; with `Cc1cccc(CNC2=NCCNC23CCN(S(=O)(=O)c2ccc4c(c2)CCCC4)CC3)c1`, 854 s. `CN1C(=O)c2cc(C(=O)N3CCCC3)nn2CC1(C)C(=O)NCc1ccc(F)cc1` (stereo not given) had an RP-LC retention time of 626 s. `CCOC(=O)CNC(=O)C1CCN(c2ncccc2S(=O)(=O)N2CCCCC2)CC1` showed an RP-LC retention time of 784 s.

With `COCC(=O)NC(Cc1ccccc1)c1nnc(N2CCN(C)CC2)o1` (stereo not given), the RP-LC retention time amounted to 585 s. On to `CCc1ccccc1NC(=O)Cn1c(=O)n(-c2cccc(C)c2)c(=O)c2c1cc(C)n2C`, for which the RP-LC retention time stood at 882 s. With `COC(=O)c1ccc(NC(=O)N2CCc3nc[nH]c3C2)cc1` the figure was 591 s.
